Measured values published in ChEMBL document CHEMBL3822455, “Aryl or heteroaryl substituted aminal derivatives of HCV NS5A inhibitor MK-8742” (Bioorg Med Chem Lett, 2016).
pEC50: −log10 of the molar value.

Assays:
Assay type in all cases: functional, organism-based, Hepacivirus hominis
Hepatitis C virus [1] = assay: Antiviral activity against HCV genotype 1a assessed as replicon RNA level measured after 3 days by real-time PCR method; conditions: subtype 1a, 72 h
Hepatitis C virus [2] = assay: Antiviral activity against HCV genotype 4a assessed as replicon RNA level measured after 3 days by real-time PCR method; conditions: 72 h
Hepatitis C virus [3] = assay: Antiviral activity against HCV genotype 1a harboring NS5A L31V mutant assessed as replicon RNA level measured after 3 days by real-time PCR method; conditions: subtype 1a, 72 h
Hepatitis C virus [4] = assay: Antiviral activity against HCV genotype 2b assessed as replicon RNA level measured after 3 days by real-time PCR method; conditions: 72 h
Hepatitis C virus [5] = assay: Antiviral activity against HCV genotype 3a assessed as replicon RNA level measured after 3 days by real-time PCR method; conditions: 72 h
Hepatitis C virus [6] = assay: Antiviral activity against HCV genotype 2a assessed as replicon RNA level measured after 3 days by real-time PCR method; conditions: 72 h
Hepatitis C virus [7] = assay: Antiviral activity against HCV genotype 1b assessed as replicon RNA level measured after 3 days by real-time PCR method; conditions: 72 h
Hepatitis C virus [8] = assay: Antiviral activity against HCV genotype 1a harboring NS5A Y93H mutant assessed as replicon RNA level measured after 3 days by real-time PCR method; conditions: subtype 1a, 72 h

Structure (SMILES) | pEC50 (Hepatitis C virus [1]) | pEC50 (Hepatitis C virus [2]) | pEC50 (Hepatitis C virus [3]) | pEC50 (Hepatitis C virus [4]) | pEC50 (Hepatitis C virus [5]) | pEC50 (Hepatitis C virus [6]) | pEC50 (Hepatitis C virus [7]) | pEC50 (Hepatitis C virus [8])
COC(=O)N[C@H](C(=O)N1CCC[C@H]1c1ncc(-c2ccc3c(c2)OC(c2ccc(-c4cncnc4)cc2)n2c-3cc3cc(-c4cnc([C@@H]5CCCN5C(=O)[C@@H](NC(=O)OC)C(C)C)[nH]4)ccc32)[nH]1)C(C)C (mixture of isomers) | 10.15 | 10.40 | 8.00 | 7.89 | 9.00 | 10.40 | 10.64 | 7.15
COC(=O)N[C@H](C(=O)N1CCC[C@H]1c1ncc(-c2ccc3c(c2)OC(c2cccc(C(=O)O)c2)n2c-3cc3cc(-c4cnc([C@@H]5CCCN5C(=O)[C@@H](NC(=O)OC)C(C)C)[nH]4)ccc32)[nH]1)C(C)C (mixture of isomers) | 8.55 | 8.29 | 6.67 | < 6.00 | 6.54 | 7.93 | 8.62 | < 6.00
COC(=O)N[C@H](C(=O)N1CCC[C@H]1c1ncc(-c2ccc3c(c2)OC(c2ccc(C4CC4)cc2)n2c-3cc3cc(-c4cnc([C@@H]5CCCN5C(=O)[C@@H](NC(=O)OC)C(C)C)[nH]4)ccc32)[nH]1)C(C)C (mixture of isomers) | 11.52 | > 9.70 | 10.40 | 9.30 | 10.52 | > 9.70 | > 10.70 | 9.30
COC(=O)N[C@H](C(=O)N1CCC[C@H]1c1ncc(-c2ccc3c(c2)OC(c2cccc(-c4ccc(N)nc4)c2)n2c-3cc3cc(-c4cnc([C@@H]5CCCN5C(=O)[C@@H](NC(=O)OC)C(C)C)[nH]4)ccc32)[nH]1)C(C)C (mixture of isomers) | 11.40 | 11.70 | 9.70 | 8.70 | 9.70 | 11.30 | 11.22 | 8.00
COC(=O)N[C@H](C(=O)N1CCC[C@H]1c1ncc(-c2ccc3c(c2)OC(c2cccc(OC(F)(F)F)c2)n2c-3cc3cc(-c4cnc([C@@H]5CCCN5C(=O)[C@@H](NC(=O)OC)C(C)C)[nH]4)ccc32)[nH]1)C(C)C (mixture of isomers) | 11.30 | 11.00 | 9.70 | 8.52 | 10.52 | 11.52 | 11.52 | 8.21
COC(=O)N[C@H](C(=O)N1CCC[C@H]1c1ncc(-c2ccc3c(c2)OC(c2cccc(C4CC4)c2)n2c-3cc3cc(-c4cnc([C@@H]5CCCN5C(=O)[C@@H](NC(=O)OC)C(C)C)[nH]4)ccc32)[nH]1)C(C)C (mixture of isomers) | 11.40 | 11.70 | 9.22 | 8.15 | 9.52 | 11.00 | 11.70 | 7.92
COC(=O)N[C@H](C(=O)N1CCC[C@H]1c1ncc(-c2ccc3c(c2)OC(c2cccc(-c4ccc(-c5ccccc5)cc4)c2)n2c-3cc3cc(-c4cnc([C@@H]5CCCN5C(=O)[C@@H](NC(=O)OC)C(C)C)[nH]4)ccc32)[nH]1)C(C)C (mixture of isomers) | 11.22 | 11.30 | 9.52 | 8.52 | 11.00 | 11.52 | 11.52 | 8.70
COC(=O)N[C@H](C(=O)N1CCC[C@H]1c1ncc(-c2ccc3c(c2)OC(c2ccc(-c4ccccc4)cc2)n2c-3cc3cc(-c4cnc([C@@H]5CCCN5C(=O)[C@@H](NC(=O)OC)C(C)C)[nH]4)ccc32)[nH]1)C(C)C (mixture of isomers) | > 10.70 | > 10.70 | > 8.70 | > 8.70 | > 9.70 | > 9.70 | > 10.70 | > 8.70
COC(=O)N[C@H](C(=O)N1CCC[C@H]1c1ncc(-c2ccc3c(c2)OC(c2cccc(-c4cccnc4)c2)n2c-3cc3cc(-c4cnc([C@@H]5CCCN5C(=O)[C@@H](NC(=O)OC)C(C)C)[nH]4)ccc32)[nH]1)C(C)C (mixture of isomers) | 11.22 | 11.52 | 9.70 | 8.10 | 10.10 | 11.40 | 11.10 | 7.59
COC(=O)N[C@H](C(=O)N1CCC[C@H]1c1ncc(-c2ccc3c(c2)OC(c2cccc(-c4ccccc4)c2)n2c-3cc3cc(-c4cnc([C@@H]5CCCN5C(=O)[C@@H](NC(=O)OC)C(C)C)[nH]4)ccc32)[nH]1)C(C)C (stereo partly drawn) | 11.52 | 11.30 | 9.52 | 9.00 | 10.15 | 11.52 | 11.40 | 8.10
COC(=O)N[C@H](C(=O)N1CCC[C@H]1c1ncc(-c2ccc3c(c2)OC(c2cccc(-c4ncon4)c2)n2c-3cc3cc(-c4cnc([C@@H]5CCCN5C(=O)[C@@H](NC(=O)OC)C(C)C)[nH]4)ccc32)[nH]1)C(C)C (mixture of isomers) | 11.05 | 10.70 | 9.70 | 8.40 | 9.40 | 11.15 | 11.22 | 8.22
CNC(=O)c1cccc(C2Oc3cc(-c4cnc([C@@H]5CCCN5C(=O)[C@@H](NC(=O)OC)C(C)C)[nH]4)ccc3-c3cc4cc(-c5cnc([C@@H]6CCCN6C(=O)[C@@H](NC(=O)OC)C(C)C)[nH]5)ccc4n32)c1 (mixture of isomers) | 10.22 | 9.74 | > 8.00 | 7.62 | 9.05 | 10.05 | 11.00 | 6.84
COC(=O)N[C@H](C(=O)N1CCC[C@H]1c1ncc(-c2ccc3c(c2)OC(c2ccc(-c4ccncc4)cc2)n2c-3cc3cc(-c4cnc([C@@H]5CCCN5C(=O)[C@@H](NC(=O)OC)C(C)C)[nH]4)ccc32)[nH]1)C(C)C (mixture of isomers) | 11.52 | 10.70 | 9.52 | > 8.70 | 10.00 | > 9.70 | 11.40 | 7.72
COC(=O)N[C@H](C(=O)N1CCC[C@H]1c1ncc(-c2ccc3c(c2)OC(c2ccc(-c4cccc(-c5ccccc5)c4)cc2)n2c-3cc3cc(-c4cnc([C@@H]5CCCN5C(=O)[C@@H](NC(=O)OC)C(C)C)[nH]4)ccc32)[nH]1)C(C)C (mixture of isomers) | > 10.70 | > 10.70 | > 8.70 | > 8.70 | 9.70 | > 10.70 | 11.52 | 8.70
COC(=O)N[C@H](C(=O)N1CCC[C@H]1c1ncc(-c2ccc3c(c2)OC(c2ccc(OC)cc2)n2c-3cc3cc(-c4cnc([C@@H]5CCCN5C(=O)[C@@H](NC(=O)OC)C(C)C)[nH]4)ccc32)[nH]1)C(C)C (mixture of isomers) | 11.00 | 11.10 | 9.52 | 9.10 | 10.15 | 11.40 | 11.15 | 7.82
COC(=O)N[C@H](C(=O)N1CCC[C@H]1c1ncc(-c2ccc3c(c2)OC(c2cccc(C(F)(F)F)c2)n2c-3cc3cc(-c4cnc([C@@H]5CCCN5C(=O)[C@@H](NC(=O)OC)C(C)C)[nH]4)ccc32)[nH]1)C(C)C (mixture of isomers) | 11.52 | 11.00 | 9.21 | 8.70 | 10.40 | 11.52 | 11.52 | 8.70
COC(=O)N[C@H](C(=O)N1CCC[C@H]1c1ncc(-c2ccc3c(c2)OC(c2ccc(-c4ccc(-c5ccccc5)cc4)cc2)n2c-3cc3cc(-c4cnc([C@@H]5CCCN5C(=O)[C@@H](NC(=O)OC)C(C)C)[nH]4)ccc32)[nH]1)C(C)C (mixture of isomers) | 12.00 | 12.00 | 10.22 | 10.22 | 10.00 | 11.52 | 11.70 | > 8.70
COC(=O)N[C@H](C(=O)N1CCC[C@H]1c1ncc(-c2ccc3c(c2)OC(c2cccc(N4CCOCC4)c2)n2c-3cc3cc(-c4cnc([C@@H]5CCCN5C(=O)[C@@H](NC(=O)OC)C(C)C)[nH]4)ccc32)[nH]1)C(C)C (mixture of isomers) | 11.40 | 11.15 | 9.52 | 7.77 | 9.92 | 11.70 | 11.22 | 7.28
CCOc1cccc(C2Oc3cc(-c4cnc([C@@H]5CCCN5C(=O)[C@@H](NC(=O)OC)C(C)C)[nH]4)ccc3-c3cc4cc(-c5cnc([C@@H]6CCCN6C(=O)[C@@H](NC(=O)OC)C(C)C)[nH]5)ccc4n32)c1 (mixture of isomers) | 10.70 | 12.30 | 9.70 | 9.40 | 10.30 | 11.00 | 12.00 | 8.74
COC(=O)N[C@H](C(=O)N1CCC[C@H]1c1ncc(-c2ccc3c(c2)OC(c2ccccc2)n2c-3cc3cc(-c4cnc([C@@H]5CCCN5C(=O)[C@@H](NC(=O)OC)C(C)C)[nH]4)ccc32)[nH]1)C(C)C (stereo partly drawn) | 11.40 | 11.52 | 9.30 | 8.52 | 10.70 | 11.52 | 11.52 | 8.70
COC(=O)N[C@H](C(=O)N1CCC[C@H]1c1ncc(-c2ccc3c(c2)OC(c2cccc(-c4noc(C)n4)c2)n2c-3cc3cc(-c4cnc([C@@H]5CCCN5C(=O)[C@@H](NC(=O)OC)C(C)C)[nH]4)ccc32)[nH]1)C(C)C (mixture of isomers) | 11.52 | 11.00 | 9.70 | 8.70 | 10.15 | 11.70 | 11.40 | 9.05
